Results from patent publication US11753446B2, “Beta-hairpin peptidomimetics” (POLYPHOR AG, priority 2014, dated 2023).
Read-outs that look alike come from different tables or passages of the source. Where a SMILES comes first, the peptide text is derived from it. [ ]: non-standard residue; d: D form. Tle = CC(C)(C)[C@H](N)C(=O)O; dDab = NCC[C@@H](N)C(=O)O; Orn = NCCC[C@H](N)C(=O)O; Dab = NCC[C@H](N)C(=O)O; Dap = NC[C@H](N)C(=O)O

Key:
[1] = system: Acinetobacter baumannii DSM 30008; type: cell-based
Method in brief: (§1)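 Peptide activity was tested by NCCLS broth microdilution with slight modifications. Bacteria were diluted in cation-adjusted Mueller-Hinton II broth to approximately 10^6 CFU/mL against a 0.5 McFarland standard. They were then exposed to two-fold serial peptide dilutions in broth containing 0.002% final polysorbate 80.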

[2] = system: Escherichia coli ATCC 25922; type: cell-based
Method in brief: as §1

[3] = system: Klebsiella pneumoniae ATCC 13883; type: cell-based
Method in brief: as §1

[4] = system: human red blood cells (hRBC); test: Hemolysis: hemolytic activity at 100 μg/mL, 1 h at 37° C.
Method in brief: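 Peptides at 100 μg/mL incubated with washed 20% (v/v) human erythrocytes (~0.9×10^9 cells/mL) for 1 h at 37 °C with shaking. Released hemoglobin read at OD 540 nm in supernatant; 0% and 100% lysis from PBS/0.001% acetic acid and 2.5% Triton X-100.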

[5] = Mueller-Hinton II broth, 18-20 hours at 35° C.

Structure (SMILES)	Acinetobacter baumannii DSM 30008 MIC ([1]; DSM 30008) [µg/mL]	Escherichia coli ATCC 25922 MIC ([2]; ATCC 25922) [µg/mL]	Klebsiella pneumoniae ATCC 13883 MIC ([3]; ATCC 13883) [µg/mL]	Hemolysis at 100 μg/mL ([4]; red cells of human, 1 h, 100) [%]	Acinetobacter baumannii DSM 30008 MIC [1, 5] [µg/mL]	Escherichia coli ATCC 25922 MIC [2, 5] [µg/mL]	Klebsiella pneumoniae ATCC 13883 MIC [3, 5] [µg/mL]	Hemolysis at 100 μg/mL ([4]; 100 μg/mL, 20% hRBC, 1 h at 37° C.) [%]
CC(C)C[C@@H]1NC(=O)[C@H](CCCNC(=N)N)NC(=O)[C@H]2CCCN2C(=O)[C@H](C(C)C)NC(=O)[C@H]([C@@H](C)O)NC(=O)[C@H](C(C)C)NC(=O)[C@@H]2CSSC[C@H](NC(=O)[C@H](Cc3ccc(O)cc3)NC(=O)[C@H]([C@@H](C)O)NC1=O)C(=O)N[C@@H](CCN)C(=O)N[C@@H](CCN)C(=O)N[C@@H](CCN)C(=O)N[C@@H](Cc1c[nH]c3ccccc13)C(=O)N2 [Example 35, cyclo(-Leu-Thr-Tyr-Cys-Dab-Dab-Dab-Trp-Cys-Val-Thr-Val-^DPro-Arg-)] (HELM PEPTIDE1{C.[Dab].[Dab].[Dab].W.C.V.T.V.[dP].R.L.T.Y}$PEPTIDE1,PEPTIDE1,1:R3-6:R3|PEPTIDE1,PEPTIDE1,1:R1-14:R2$$$V2.0)	1	2	2	4	–	–	–	–
CC(C)[C@@H]1NC(=O)[C@@H]2CCCN2C(=O)[C@@H](C)NC(=O)[C@H]([C@@H](C)O)NC(=O)[C@H](CO)NC(=O)[C@H](C(C)(C)C)NC(=O)[C@H](CCN)NC(=O)[C@H](Cc2c[nH]c3ccccc23)NC(=O)[C@H](CCN)NC(=O)[C@@H](CCN)NC(=O)[C@H](CCN)NC(=O)[C@H](CCN)NC(=O)[C@H](Cc2ccc(O)cc2)NC(=O)[C@H](CN)NC1=O [Example 46, cyclo(-Val-Dap-Tyr-Dab-Dab-^DDab-Dab-Trp-Dab-tBuGly-Ser-Thr-^DAla-Pro-)] (cyclo([Dab][Dab][dDab][Dab]W[Dab][Tle]ST[dA]PV[Dap]Y))	1	1	0.5	0	–	–	–	–
CC(C)[C@@H]1NC(=O)[C@@H]2CCCN2C(=O)[C@@H](C)NC(=O)[C@H]([C@@H](C)O)NC(=O)[C@H](CO)NC(=O)[C@H](C(C)(C)C)NC(=O)[C@H](CCN)NC(=O)[C@H](Cc2c[nH]c3ccccc23)NC(=O)[C@H](CCN)NC(=O)[C@@H](CCN)NC(=O)[C@H](CN)NC(=O)[C@H](CCN)NC(=O)[C@H](Cc2ccc(O)cc2)NC(=O)[C@H](CN)NC1=O [Example 45, cyclo(-Val-Dap-Tyr-Dab-Dap-^DDab-Dab-Trp-Dab-tBuGly-Ser-Thr-^DAla-Pro-)] (cyclo([Dab][Dap][dDab][Dab]W[Dab][Tle]ST[dA]PV[Dap]Y))	1	0.5	0.25	4	–	–	–	–
CC(C)[C@@H]1NC(=O)[C@@H]2CCCN2C(=O)[C@@H](Cc2ccc(O)cc2)NC(=O)[C@H]([C@@H](C)O)NC(=O)[C@@H]2CSSC[C@H](NC1=O)C(=O)N[C@@H](Cc1ccc(O)cc1)C(=O)N[C@@H](CCN)C(=O)N[C@@H](CN)C(=O)N[C@@H](CCN)C(=O)N[C@@H](CCN)C(=O)N[C@@H](Cc1c[nH]c3ccccc13)C(=O)N[C@@H](CCN)C(=O)N[C@@H](C(C)(C)C)C(=O)N2 [Example 15, cyclo(-Val-Cys-Tyr-Dab-Dap-Dab-Dab-Trp-Dab-tBuGly-Cys-Thr-^DTyr-Pro-)] (HELM PEPTIDE1{C.T.[dY].P.V.C.Y.[Dab].[NC[C@H](N[*:1])C(=O)[*:2]].[Dab].[Dab].W.[Dab].[CC(C)(C)[C@H](N[*:1])C(=O)[*:2]]}$PEPTIDE1,PEPTIDE1,1:R3-6:R3|PEPTIDE1,PEPTIDE1,1:R1-14:R2$$$V2.0)	–	–	–	–	0.5	0.5	0.25	2
CC(C)C[C@@H]1NC(=O)[C@H](CCCNC(=N)N)NC(=O)[C@@H](CCN)NC(=O)[C@H](CC(C)C)NC(=O)[C@@H]2CSSC[C@H](NC1=O)C(=O)N[C@@H](Cc1ccc(O)cc1)C(=O)N[C@@H](CC(N)=O)C(=O)N[C@@H](CCCN)C(=O)N[C@H](CCN)C(=O)N[C@@H](CCN)C(=O)N[C@@H](Cc1c[nH]c3ccccc13)C(=O)N[C@@H](CO)C(=O)N[C@@H](Cc1ccc(O)cc1)C(=O)N2 [Example 63, cyclo(-Leu-Cys-Tyr-Asn-Orn-^DDab-Dab-Trp-Ser-Tyr-Cys-Leu-^DDab-Arg-)] (HELM PEPTIDE1{C.L.[NCC[C@@H](N[*:1])C(=O)[*:2]].R.L.C.Y.N.[Orn].[NCC[C@@H](N[*:1])C(=O)[*:2]].[Dab].W.S.Y}$PEPTIDE1,PEPTIDE1,1:R3-6:R3|PEPTIDE1,PEPTIDE1,1:R1-14:R2$$$V2.0)	0.625	1	0.75	3	–	–	–	–
CC[C@H](C)[C@@H]1NC(=O)[C@@H]2CCCN2C(=O)[C@@H](CCN)NC(=O)[C@H](CO)NC(=O)[C@H](C)NC(=O)[C@H](C(C)(C)C)NC(=O)[C@H](CCN)NC(=O)[C@H](Cc2c[nH]c3ccccc23)NC(=O)[C@H](CCN)NC(=O)[C@@H](CCN)NC(=O)[C@H](CCCN)NC(=O)[C@H](CCN)NC(=O)[C@H](Cc2ccc(O)cc2)NC(=O)[C@H]([C@@H](C)O)NC1=O [Example 48, cyclo(-Ile-Thr-Tyr-Dab-Orn-^DDab-Dab-Trp-Dab-tBuGly-Ala-Ser-^DDab-Pro-)] (cyclo(AS[dDab]PITY[Dab][Orn][dDab][Dab]W[Dab][Tle]))	8	1	2	1	–	–	–	–
CC(C)C[C@@H]1NC(=O)[C@H](CCCNC(=N)N)NC(=O)[C@@H](C)NC(=O)[C@H](C(C)C)NC(=O)[C@@H]2CSSC[C@H](NC1=O)C(=O)N[C@@H](Cc1ccc(O)cc1)C(=O)N[C@@H](CCN)C(=O)N[C@@H](CCCN)C(=O)N[C@H](CCN)C(=O)N[C@@H](CCN)C(=O)N[C@@H](Cc1c[nH]c3ccccc13)C(=O)N[C@@H](CC(N)=O)C(=O)N[C@@H](Cc1ccc(O)cc1)C(=O)N2 [Example 73, cyclo(-Leu-Cys-Tyr-Dab-Orn-^DDab-Dab-Trp-Asn-Tyr-Cys-Val-^DAla-Arg-)] (HELM PEPTIDE1{C.V.[dA].R.L.C.Y.[Dab].[Orn].[NCC[C@@H](N[*:1])C(=O)[*:2]].[Dab].W.N.Y}$PEPTIDE1,PEPTIDE1,1:R3-6:R3|PEPTIDE1,PEPTIDE1,1:R1-14:R2$$$V2.0)	1.5	0.75	1	1	–	–	–	–
CC[C@H](C)[C@@H]1NC(=O)[C@H](CCCNC(=N)N)NC(=O)[C@@H](CCN)NC(=O)[C@H](Cc2ccc(O)cc2)NC(=O)[C@@H]2CSSC[C@H](NC1=O)C(=O)N[C@@H](Cc1ccc(O)cc1)C(=O)N[C@@H](CC(N)=O)C(=O)N[C@@H](CCCN)C(=O)N[C@H](CCN)C(=O)N[C@@H](CCN)C(=O)N[C@@H](CC(C)C)C(=O)N[C@@H](CO)C(=O)N[C@@H](C(C)C)C(=O)N2 [Example 5, cyclo(-Ile-Cys-Tyr-Asn-Orn-^DDab-Dab-Leu-Ser-Val-Cys-Tyr-^DDab-Arg-)] (HELM PEPTIDE1{C.Y.N.[Orn].[NCC[C@@H](N[*:1])C(=O)[*:2]].[Dab].L.S.V.C.Y.[NCC[C@@H](N[*:1])C(=O)[*:2]].R.I}$PEPTIDE1,PEPTIDE1,1:R3-10:R3|PEPTIDE1,PEPTIDE1,1:R1-14:R2$$$V2.0)	0.25	0.5	0.25	4	–	–	–	–
CC(C)C[C@@H]1NC(=O)[C@H](CCCNC(=N)N)NC(=O)[C@@H](CCN)NC(=O)[C@H](C(C)C)NC(=O)[C@@H]2CSSC[C@H](NC1=O)C(=O)N[C@@H](Cc1ccc(O)cc1)C(=O)N[C@@H](C(C)C)C(=O)N[C@@H](CCCN)C(=O)N[C@H](CCN)C(=O)N[C@@H](CCN)C(=O)N[C@@H](Cc1c[nH]c3ccccc13)C(=O)N[C@@H](Cc1ccc(O)cc1)C(=O)N[C@@H](Cc1ccc(O)cc1)C(=O)N2 [Example 21, cyclo(-Leu-Cys-Tyr-Val-Orn-^DDab-Dab-Trp-Tyr-Tyr-Cys-Val-^DDab-Arg-)] (HELM PEPTIDE1{C.V.[NCC[C@@H](N[*:1])C(=O)[*:2]].R.L.C.Y.V.[Orn].[NCC[C@@H](N[*:1])C(=O)[*:2]].[Dab].W.Y.Y}$PEPTIDE1,PEPTIDE1,1:R3-6:R3|PEPTIDE1,PEPTIDE1,1:R1-14:R2$$$V2.0)	0.5	1	1	6	–	–	–	–
CC(C)C[C@@H]1NC(=O)[C@H](CCN)NC(=O)[C@@H](CCN)NC(=O)[C@H](CO)NC(=O)[C@@H]2CSSC[C@H](NC1=O)C(=O)N[C@@H](Cc1ccc(O)cc1)C(=O)N[C@@H](CC(N)=O)C(=O)N[C@@H](CCCN)C(=O)N[C@H](CCN)C(=O)N[C@@H](CCN)C(=O)N[C@@H](Cc1c[nH]c3ccccc13)C(=O)N[C@@H](CO)C(=O)N[C@@H](Cc1ccc(O)cc1)C(=O)N2 [Example 8, cyclo(-Leu-Cys-Tyr-Asn-Orn-^DDab-Dab-Trp-Ser-Tyr-Cys-Ser-^DDab-Dab-)] (HELM PEPTIDE1{C.S.[NCC[C@@H](N[*:1])C(=O)[*:2]].[Dab].L.C.Y.N.[Orn].[NCC[C@@H](N[*:1])C(=O)[*:2]].[Dab].W.S.Y}$PEPTIDE1,PEPTIDE1,1:R3-6:R3|PEPTIDE1,PEPTIDE1,1:R1-14:R2$$$V2.0)	1.5	1	0.5	1	–	–	–	–
